Laboratory results reported in patent publication US20250084095A1, “Aminopyrimidine Derivatives as Cyclin-Dependent Kinase Inhibitors” (Accutar Biotechnology Inc., priority 2023, published 2025).

Tests used:
[1] = system: Phospho-Rb (Ser807/811) in MCF7 cells; test: Phospho-Rb expression inhibition in MCF7 cells quantified by in cell Western; type: cell-based, human; details: Homo sapiens, MCF7, 24 h, 24 hours, in cell Western, read-out: MCF7 pRb IC50
Summary of the method: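 MCF7 cells were seeded at 20,000/well, grown overnight, then treated 24 h at 37 °C with compound dilutions (0.1% DMSO from 1000× stocks). Fixed cells were co-stained for phospho-Rb Ser807/811 and total Rb. Near-infrared dual-channel in-cell Western imaging was the read-out.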

22RV1 cells = test: Cell growth inhibition of 22RV1 cells (CellTiter-Glo); type: cell-based; details: Homo sapiens, 22Rv1, 120 h, 5 days, CellTiter-Glo, read-out: 22RV1 Cell Growh GI50
Summary of the method: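 22RV1 cells were plated in RPMI1640 with FBS (20% in one version, 10% in the other) and dosed next day at various concentrations from DMSO stocks. After 5 days at 37 °C, viability was measured by CellTiter-Glo luminescence.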

SMILES	IC50 [1]	GI50 (22RV1 cells)
CC(C)c1cn(C)c(=O)c2c(F)cc(-c3nc(N[C@@H]4C[C@H]5CO[C@H](O5)[C@H]4O)ncc3Cl)cc12 [Compound 188, 6-(5-chloro-2-(((1S,3R,4S,5R)-4-hydroxy-6,8-dioxabicyclo[3.2.1]octan-3-yl)amino)pyrimidin-4-yl)-8-fluoro-4-isopropyl-2-methylisoquinolin-1(2H)-one]	150 to 1000 nM	120 to 450 nM
CC(C)n1c(C(F)(F)CO)nc2c(F)cc(-c3nc(N[C@@H]4C[C@H]5CO[C@H](O5)[C@H]4O)ncc3Cl)cc21 [Compound 176, (1S,3R,4S,5R)-3-((5-chloro-4-(2-(1,1-difluoro-2-hydroxyethyl)-4-fluoro-1-isopropyl-1H-benzo[d]imidazol-6-yl)pyrimidin-2-yl)amino)-6,8-dioxabicyclo[3.2.1]octan-4-ol]	150 to 1000 nM	450 to 3000 nM
CC(C)n1c(C(C)(C)O)nc2c(F)cc(-c3nc(N[C@@H]4C[C@H]5CO[C@H](O5)[C@H]4O)ncc3C(F)F)cc21 [Compound 29, (1S,3R,4S,5R)-3-((5-(difluoromethyl)-4-(4-fluoro-2-(2-hydroxypropan-2-yl)-1-isopropyl-1H-benzo[d]imidazol-6-yl)pyrimidin-2-yl)amino)-6,8-dioxabicyclo[3.2.1]octan-4-ol]	150 to 1000 nM	450 to 3000 nM
CC(C)[C@H]1COC(=O)N1c1nc2c(F)cc(-c3nc(N[C@@H]4C[C@H]5CO[C@H](O5)[C@H]4O)ncc3Cl)cc2n1C(C)C [Compound 297, (S)-3-(6-(5-chloro-2-(((1S,3R,4S,5R)-4-hydroxy-6,8-dioxabicyclo[3.2.1]octan-3-yl)amino)pyrimidin-4-yl)-4-fluoro-1-isopropyl-1H-benzo[d]imidazol-2-yl)-4-isopropyloxazolidin-2-one]	150 to 1000 nM	450 to 3000 nM
Cc1c(CN2C[C@H](C)OC2=O)n(C(C)C)c2cc(-c3nc(N[C@@H]4C[C@H]5CO[C@H](O5)[C@H]4O)ncc3F)ccc2c1=O [Compound 212, (S)-3-((7-(5-fluoro-2-(((1S,3R,4S,5R)-4-hydroxy-6,8-dioxabicyclo[3.2.1]octan-3-yl)amino)pyrimidin-4-yl)-1-isopropyl-3-methyl-4-oxo-1,4-dihydroquinolin-2-yl)methyl)-5-methyloxazolidin-2-one]	150 to 1000 nM	> 3000 nM
CC(C)n1c([C@@H]2CCC(F)(F)C2)nc2c(F)cc(-c3nc(N[C@@H]4C[C@H]5CO[C@H](O5)[C@H]4O)ncc3Cl)cc21 [Compound 5, (1S,3R,4S,5R)-3-((5-chloro-4-(2-((R)-3,3-difluorocyclopentyl)-4-fluoro-1-isopropyl-1H-benzo[d]imidazol-6-yl)pyrimidin-2-yl)amino)-6,8-dioxabicyclo[3.2.1]octan-4-ol]	150 to 1000 nM	120 to 450 nM
CC(C)(O)c1nc2c(F)cc(-c3nc(N[C@@H]4C[C@H]5CO[C@H](O5)[C@H]4O)ncc3Cl)cc2n1C12CC(C1)C2 [Compound 181, (1S,3R,4S,5R)-3-((4-(1-(bicyclo[1.1.1]pentan-1-yl)-4-fluoro-2-(2-hydroxypropan-2-yl)-1H-benzo[d]imidazol-6-yl)-5-chloropyrimidin-2-yl)amino)-6,8-dioxabicyclo[3.2.1]octan-4-ol]	150 to 1000 nM	120 to 450 nM
CC(C)(O)c1cnc2c(F)cc(-c3nc(N[C@@H]4C[C@H]5CO[C@H](O5)[C@H]4O)ncc3F)cc2c1 [Compound 254, (1S,3R,4S,5R)-3-((5-fluoro-4-(8-fluoro-3-(2-hydroxypropan-2-yl)quinolin-6-yl)pyrimidin-2-yl)amino)-6,8-dioxabicyclo[3.2.1]octan-4-ol]	150 to 1000 nM	120 to 450 nM
CC(C)n1c(-c2ccccc2)nc2c(F)cc(-c3nc(N[C@@H]4C[C@H]5CO[C@H](O5)[C@H]4O)ncc3Cl)cc21 [Compound 163, (1S,3R,4S,5R)-3-((5-chloro-4-(4-fluoro-1-isopropyl-2-phenyl-1H-benzo[d]imidazol-6-yl)pyrimidin-2-yl)amino)-6,8-dioxabicyclo[3.2.1]octan-4-ol]	40 to 150 nM	120 to 450 nM
CC(C)(O)c1cnc2c(F)cc(-c3nc(N[C@@H]4C[C@H]5CO[C@H](O5)[C@H]4O)ncc3Cl)cc2c1 [Compound 253, (1S,3R,4S,5R)-3-((5-chloro-4-(8-fluoro-3-(2-hydroxypropan-2-yl)quinolin-6-yl)pyrimidin-2-yl)amino)-6,8-dioxabicyclo[3.2.1]octan-4-ol]	150 to 1000 nM	120 to 450 nM

Further lines, results first:

IC50 [1]	GI50 (22RV1 cells)	SMILES
40 to 150 nM	120 to 450 nM	CC(C)n1c(C2(O)COC2)nc2c(F)cc(-c3nc(N[C@@H]4C[C@H]5CO[C@H](O5)[C@H]4O)ncc3Cl)cc21 [Compound 172, (1S,3R,4S,5R)-3-((5-chloro-4-(4-fluoro-2-(3-hydroxyoxetan-3-yl)-1-isopropyl-1H-benzo[d]imidazol-6-yl)pyrimidin-2-yl)amino)-6,8-dioxabicyclo[3.2.1]octan-4-ol]
40 to 150 nM	≤ 120 nM	CC(C)(O)c1nc2c(F)cc(-c3nc(N[C@@H]4C[C@H]5CO[C@H](O5)[C@H]4O)ncc3Cl)cc2n1C1(CF)CC1 [Compound 167, (1S,3R,4S,5R)-3-((5-chloro-4-(4-fluoro-1-(1-(fluoromethyl)cyclopropyl)-2-(2-hydroxypropan-2-yl)-1H-benzo[d]imidazol-6-yl)pyrimidin-2-yl)amino)-6,8-dioxabicyclo[3.2.1]octan-4-ol]
≤ 40 nM	≤ 120 nM	CC(C)c1c(C(C)(C)O)cnc2c(F)cc(-c3nc(N[C@@H]4C[C@H]5CO[C@H](O5)[C@H]4O)ncc3Cl)cc12 [Compound 250, (1S,3R,4S,5R)-3-((5-chloro-4-(8-fluoro-3-(2-hydroxypropan-2-yl)-4-isopropylquinolin-6-yl)pyrimidin-2-yl)amino)-6,8-dioxabicyclo[3.2.1]octan-4-ol]
40 to 150 nM	120 to 450 nM	CC(C)n1c(C2CC(O)C2)nc2c(F)cc(-c3nc(N[C@@H]4C[C@H]5CO[C@H](O5)[C@H]4O)ncc3Cl)cc21 (stereo partly drawn) [Compound 244, (1S,3R,4S,5R)-3-((5-chloro-4-(4-fluoro-2-((1s,3S)-3-hydroxycyclobutyl)-1-isopropyl-1H-benzo[d]imidazol-6-yl)pyrimidin-2-yl)amino)-6,8-dioxabicyclo[3.2.1]octan-4-ol]
40 to 150 nM	120 to 450 nM	CC(C)n1c(C(C)(C)O)nc2c(F)cc(-c3nc(N[C@@H]4C[C@H]5CO[C@H](O5)[C@H]4O)ncc3F)cc21 [Compound 27, (1S,3R,4S,5R)-3-((5-fluoro-4-(4-fluoro-2-(2-hydroxypropan-2-yl)-1-isopropyl-1H-benzo[d]imidazol-6-yl)pyrimidin-2-yl)amino)-6,8-dioxabicyclo[3.2.1]octan-4-ol]
40 to 150 nM	120 to 450 nM	C[C@H]1COc2c(-c3nc(N[C@@H]4C[C@H]5CO[C@H](O5)[C@H]4O)ncc3Cl)cc(F)c3c2N1CCO3 [Compound 174, (1S,3R,4S,5R)-3-((5-chloro-4-((S)-9-fluoro-4-methyl-2,3,4,5-tetrahydro-1,6-dioxa-3a-azaphenalen-7-yl)pyrimidin-2-yl)amino)-6,8-dioxabicyclo[3.2.1]octan-4-ol]
≤ 40 nM	≤ 120 nM	Cc1c(CN2CCC(F)(F)C2)n(C(C)C)c2cc(-c3nc(N[C@@H]4C[C@H]5CO[C@H](O5)[C@H]4O)ncc3F)ccc2c1=O [Compound 208, 2-((3,3-difluoropyrrolidin-1-yl)methyl)-7-(5-fluoro-2-(((1S,3R,4S,5R)-4-hydroxy-6,8-dioxabicyclo[3.2.1]octan-3-yl)amino)pyrimidin-4-yl)-1-isopropyl-3-methylquinolin-4(1H)-one]
